pIC50: −log10 of the molar value.

For the assay, the target named is T1, human TLR9 (Homo sapiens, UniProt Q9NR96).
T1 sequence (Q9NR96 26-1032): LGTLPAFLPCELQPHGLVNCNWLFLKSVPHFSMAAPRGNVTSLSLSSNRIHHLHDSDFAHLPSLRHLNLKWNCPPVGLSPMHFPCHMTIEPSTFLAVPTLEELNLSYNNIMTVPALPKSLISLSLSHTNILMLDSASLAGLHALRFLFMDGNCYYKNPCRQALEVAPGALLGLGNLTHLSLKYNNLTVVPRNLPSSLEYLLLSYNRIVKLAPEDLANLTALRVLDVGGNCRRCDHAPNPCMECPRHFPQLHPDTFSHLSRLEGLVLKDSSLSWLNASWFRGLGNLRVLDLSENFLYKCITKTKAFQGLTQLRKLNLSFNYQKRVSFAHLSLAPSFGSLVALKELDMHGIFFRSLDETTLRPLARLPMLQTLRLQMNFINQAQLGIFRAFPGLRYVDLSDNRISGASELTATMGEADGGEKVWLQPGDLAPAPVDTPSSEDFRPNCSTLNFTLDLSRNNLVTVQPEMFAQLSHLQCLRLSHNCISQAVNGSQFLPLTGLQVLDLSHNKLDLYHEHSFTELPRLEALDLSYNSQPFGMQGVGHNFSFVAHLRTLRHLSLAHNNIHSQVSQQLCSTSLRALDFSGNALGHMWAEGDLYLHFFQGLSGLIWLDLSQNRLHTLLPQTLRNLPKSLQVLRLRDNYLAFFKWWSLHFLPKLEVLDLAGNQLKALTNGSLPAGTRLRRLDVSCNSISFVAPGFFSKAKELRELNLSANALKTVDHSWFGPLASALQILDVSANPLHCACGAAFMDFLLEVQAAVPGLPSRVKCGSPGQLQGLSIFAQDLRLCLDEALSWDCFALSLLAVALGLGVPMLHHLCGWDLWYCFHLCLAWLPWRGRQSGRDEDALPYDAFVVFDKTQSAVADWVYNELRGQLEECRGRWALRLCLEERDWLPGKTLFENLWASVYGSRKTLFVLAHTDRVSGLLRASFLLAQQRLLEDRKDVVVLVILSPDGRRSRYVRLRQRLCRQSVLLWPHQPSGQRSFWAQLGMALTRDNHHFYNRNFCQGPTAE
In words: HEK293-Blue-hTLR-9 cells assay (SEAP reporter, ODN2006 stimulation). It counts as cell-based. To be noted: HEK293-Blue-hTLR9 cells, ODN2006 ligand, 20 hrs incubation. The source says:
A stable HEK293-Blue-hTLR-9 cell line was purchased from InvivoGen (Cat. #: hkb-htlr9, San Diego, Calif., USA). These cells were originally designed for studying the stimulation of human TLR9 by monitoring the activation of NF-κB. A SEAP (secreted embryonic alkaline phosphatase) reporter gene was placed under the control of the IFN-β minimal promoter fused to five NF-κB and AP-1-binding sites. The SEAP was induced by activating NF-κB and AP-1 via stimulating HEK-Blue hTLR9 cells with TLR9 ligands. Therefore the reporter expression was declined by TLR9 antagonist under the stimulation of a ligand, such as ODN2006 (Cat. #: tlr1-2006-1, Invivogen, San Diego, Calif., USA), for incubation of 20 hrs. The cell culture supernatant SEAP reporter activity was determined using QUANTI-Blue™ kit (Cat. #: rep-qb1, Invivogen, San Diego, Calif., USA) at a wavelength of 640 nm, a detection medium that turns purple or blue in the presence of alkaline phosphatase.
HEK293-Blue-hTLR9 cells were incubated at a density of 250,000˜450,000 cells/mL in a volume of 170 μL in a 96-well plate in Dulbecco's Modified Eagle's medium (DMEM) containing 4.5 g/L glucose, 50 U/mL penicillin, […], […], 2 mM L-glutamine, 10% (v/v) heat-inactivated fetal bovine serum with addition of 20 μL test compound in a serial dilution in the presence of final DMSO at 1% and 10 μL of 20 uM ODN2006 in above DMEM, perform incubation under 37° C. in a CO2 incubator for 20 hrs. Then 20 μL of the supernatant from each well was incubated with 180 μL Quanti-blue substrate solution at 37° C. for 2 hrs and the absorbance was read at 620-655 nm using a spectrophotorneter. The signalling pathway that TLR9 activation leads to downstream NF-κB activation has been widely accepted, and therefore similar reporter assay was modified for evaluating TLR9 antagonist.
On to `C[C@@H]1CN(c2ccc(C#N)n3nccc23)C[C@H](CN2CCC(N3CCN(C)CC3)CC2)O1` [Example 1, 4-[(2R,6S)-2-methyl-6-[[4-(4-methylpiperazin-1-yl)-1-piperidyl]methyl]morpholin-4-yl]pyrazolo[1,5-a]pyridine-7-carbonitrile], for which the pIC50 (as a rule, the IC50 on a negative log10 scale, so that one unit is a factor of ten) was 6.89.
Next, `C[C@@H]1CN(c2ccc(C#N)n3ncc(F)c23)C[C@H](CN2CCCC3(CCNC3)C2)O1` (stereo partly drawn) [Example 68, 3-fluoro-4-[(2S,6R)-2-(2,7-diazaspiro[4.5]decan-7-ylmethyl)-6-methyl-morpholin-4-yl]pyrazolo[1,5-a]pyridine-7-carbonitrile]: 6.96; `CC1CNCCN1C[C@H]1CN(c2ccc(C#N)n3nccc23)C[C@@H](C)O1` (single isomer, unassigned) [Example 50B]: 4.62; `C[C@@H]1CN(c2ccc(C#N)n3nccc23)C[C@H](CN2CC3CCNCC32)O1` (stereo partly drawn) [Example 56, 4-[(2S,6R)-2-(3,8-diazabicyclo[4.2.0]octan-8-ylmethyl)-6-methyl-morpholin-4-yl]pyrazolo[1,5-a]pyridine-7-carbonitrile]: 6.07.
Next, `C[C@@H]1CN(c2ccc(C#N)n3nccc23)C[C@H](CN2CC[C@@H]3CNCC32)O1` (stereo partly drawn) [Example 62, 4-[(2R,6S)-2-methyl-6-[[cis-(3aR,6aR)-3,3a,4,5,6,6a-hexahydro-2H-pyrrolo[3,4-b]pyrrol-1-yl]methyl]morpholin-4-yl]pyrazolo[1,5-a]pyridine-7-carbonitrile]: 5.62.
Next, `C[C@@H]1CN(c2ccc(C#N)n3nccc23)C[C@H](CN2CCC3(CCNCC3)CC2)O1` [Example 3, 4-[(2S,6R)-2-(3,9-diazaspiro[5.5]undecan-3-ylmethyl)-6-methyl-morpholin-4-yl]pyrazolo[1,5-a]pyridine-7-carbonitrile]: 7.05; `C[C@@H]1CN(c2ccc(C#N)n3nccc23)C[C@H](CN2CCC3(CCNC3)C2)O1` (stereo partly drawn) [Example 6, 4-[(2S,6R)-2-(2,7-diazaspiro[4.4]nonan-2-ylmethyl)-6-methyl-morpholin-4-yl]pyrazolo[1,5-a]pyridine-7-carbonitrile]: 7.51; `C[C@@H]1CN(c2ccc(C#N)n3nccc23)C[C@H](CN2CC[C@H](N)[C@H](C)C2)O1` [Example 74, 4-[(2S,6R)-2-[[(3R,4S)-4-amino-3-methyl-1-piperidyl]methyl]-6-methyl-morpholin-4-yl]pyrazolo[1,5-a]pyridine-7-carbonitrile]: 6.66.
Compound `C[C@@H]1CN(c2ccc(C#N)n3nccc23)C[C@H](CN2CCC3(CN(C)CCO3)C2)O1` (stereo partly drawn) [Example 76, 4-[(2R,6S)-2-methyl-6-[(9-methyl-6-oxa-2,9-diazaspiro[4.5]decan-2-yl)methyl]morpholin-4-yl]pyrazolo[1,5-a]pyridine-7-carbonitrile] showed a pIC50 of 5.46.
In turn, `C[C@@H]1CN(c2ccc(C#N)n3nccc23)C[C@H](CN2CCC(CCN)CC2)O1` [Example 13, 4-[(2S,6R)-2-[[4-(2-aminoethyl)-1-piperidyl]methyl]-6-methyl-morpholin-4-yl]pyrazolo[1,5-a]pyridine-7-carbonitrile] showed a pIC50 of 6.57.
For `C[C@@H]1CN(c2ccc(C#N)n3ncc(F)c23)C[C@H](CN2CCCC3(CCNCC3)C2)O1` [Example 67, 4-[(2S,6R)-2-(2,9-diazaspiro[5.5]undecan-2-ylmethyl)-6-methyl-morpholin-4-yl]-3-fluoro-pyrazolo[1,5-a]pyridine-7-carbonitrile], the pIC50 is 7.06.
Turning to `C[C@@H]1CN(c2ccc(C#N)n3nccc23)C[C@H](CN2CCC(N)CC2)O1` [Example 17, 4-[(2S,6R)-2-[(4-amino-1-piperidyl)methyl]-6-methyl-morpholin-4-yl]pyrazolo[1,5-a]pyridine-7-carbonitrile], the pIC50 was 6.74. This pIC50 is 0.32 log units lower than that of the compound before.
Next, `C[C@@H]1CN(c2ccc(C#N)n3nccc23)C[C@H](CN2CCCC3(CCNCC3)C2)O1` [Example 32, 4-[(2S,6R)-2-(2,9-diazaspiro[5.5]undecan-2-ylmethyl)-6-methyl-morpholin-4-yl]pyrazolo[1,5-a]pyridine-7-carbonitrile]: 7.19.
In turn, `C[C@@H]1CN(c2ccc(C#N)n3nccc23)C[C@H](CN2CCNCC2Cc2ccccc2)O1` (stereo partly drawn) [Example 59, 4-[(2S,6R)-2-[(2-benzylpiperazin-1-yl)methyl]-6-methyl-morpholin-4-yl]pyrazolo[1,5-a]pyridine-7-carbonitrile] had a pIC50 of 5.82.
Next, `CC1CC(N)CCN1C[C@H]1CN(c2ccc(C#N)n3nccc23)C[C@@H](C)O1` (stereo partly drawn) [Example 51, 4-[(2S,6R)-2-[(4-amino-2-methyl-1-piperidyl)methyl]-6-methyl-morpholin-4-yl]pyrazolo[1,5-a]pyridine-7-carbonitrile]: 6.64.
Next, `C[C@@H]1CN(c2ccc(C#N)n3nccc23)C[C@H](CN2C3CNCC2COC3)O1` [Example 57, 4-[(2R,6S)-2-methyl-6-(3-oxa-7,9-diazabicyclo[3.3.1]nonan-9-ylmethyl)morpholin-4-yl]pyrazolo[1,5-a]pyridine-7-carbonitrile]: 5.00; `C[C@@H]1CN(c2ccc(C#N)n3nccc23)C[C@H](CN2C3CCCC2CC(N)C3)O1` (stereo partly drawn) [Example 66, Exo-4-[(2S,6R)-2-[(3-amino-9-azabicyclo[3.3.1]nonan-9-yl)methyl]-6-methyl-morpholin-4-yl]pyrazolo[1,5-a]pyridine-7-carbonitrile]: 6.92.
For the compound `C[C@@H]1CN(c2ccc(C#N)n3nccc23)C[C@H](CN2CC3CCC(C2)C3N)O1` (stereo partly drawn) [Example 36, 4-[(2S,6R)-2-[(8-amino-3-azabicyclo[3.2.1]octan-3-yl)methyl]-6-methyl-morpholin-4-yl]pyrazolo[1,5-a]pyridine-7-carbonitrile], the pIC50 was 6.28.
`C[C@@H]1CN(c2ccc(C#N)n3nccc23)C[C@H](CN2C3CCCC2CC(N)C3)O1` (stereo partly drawn) [Example 65, Endo-4-[(2S,6R)-2-[(3-amino-9-azabicyclo[3.3.1]nonan-9-yl)methyl]-6-methyl-morpholin-4-yl]pyrazolo[1,5-a]pyridine-7-carbonitrile]: the pIC50 is 6.85.
As for `C[C@@H]1CN(c2ccc(C#N)n3nccc23)C[C@H](CN2CC3CNCCC32)O1` (stereo partly drawn) [Example 52, 4-[(2S,6R)-2-(3,7-diazabicyclo[4.2.0]octan-7-ylmethyl)-6-methyl-morpholin-4-yl]pyrazolo[1,5-a]pyridine-7-carbonitrile], the figure is 6.59; as for `C[C@@H]1CN(c2ccc(C#N)n3nccc23)C[C@H](CN2CCC3(CCNC3)C2=O)O1` (stereo partly drawn) [Example 21, 4-[(2R,6R)-2-methyl-6-[(1-oxo-2,7-diazaspiro[4.4]nonan-2-yl)methyl]morpholin-4-yl]pyrazolo[1,5-a]pyridine-7-carbonitrile], 4.80; as for `CC1CN(C[C@H]2CN(c3ccc(C#N)n4nccc34)C[C@@H](C)O2)CCN1` (stereo partly drawn) [Example 28, 4-[(2R,6S)-2-methyl-6-[(3-methylpiperazin-1-yl)methyl]morpholin-4-yl]pyrazolo[1,5-a]pyridine-7-carbonitrile], 4.85.
As for `C[C@@H]1CN(c2ccc(C#N)n3nccc23)C[C@H](CN2CCC3(CCCN3)CC2)O1` [Example 53, 4-[(2S,6R)-2-(1,8-diazaspiro[4.5]decan-8-ylmethyl)-6-methyl-morpholin-4-yl]pyrazolo[1,5-a]pyridine-7-carbonitrile], the figure is 6.80.

The values above are taken from patent US20220112187A1, “PYRAZOLOPYRIDINE AMINE COMPOUNDS FOR THE TREATMENT OF AUTOIMMUNE DISEASE” (Hoffmann-La Roche Inc., priority 2018, published 2022).
